Experimental data as given in ChEMBL document CHEMBL4414655, “Position Effect of Fatty Acid Modification on the Cytotoxicity and Antimetastasis Potential of the Cytotoxic Peptide Lycosin-I” (J Med Chem, 2019).
Active and inactive are the calls of the source. The rule behind the calls is not given here. Residues, ends and D or L forms follow the SMILES beside them. *: point of attachment. Lauroyl = CCCCCCCCCCCC(=O)*

What was measured:
A549 [1] = test: Induction of cell membrane disruption in human A549 cells assessed as LDH release at 3.25 uM incubated for 30 mins by fluorescence based assay relative to control
A549 [2] = test: Anti-invasion activity in human A549 cells at 0.5 to 1 uM incubated for 12 hrs by crystal violet staining based Matrigel coated transwell invasion assay; assay type: functional, cell-based
A549 [3] = test: Induction of cell membrane disruption in human A549 cells assessed as shrunken morphology with membrane lysis at 4 uM incubated for 24 hrs by scanning electron microscopy; assay type: cell-based
Homo sapiens = species on record: Homo sapiens; test: Induction of cell membrane disruption in human erythrocytes cells assessed as induction of hemolysis at 0.098 to 50 uM incubated for 1 hr by fluorescence based assay relative to control; assay type: cell membranes
A549 [4] = test: Induction of cell membrane disruption in human A549 cells at 4 uM incubated for 1 hr by AO/EB staining based fluorescence microscopy
B16-F10 [5] = test: Cytotoxicity in mouse B16/F10 cells assessed as reduction in cell viability incubated for 24 hrs by CCK8 assay; assay type: functional, cell-based; conditions: B16-F10, 24 h
A549 [6] = test: Anti-migration activity in human A549 cells incubated for 12 hrs by crystal violet staining based transwell migration assay; assay type: functional, cell-based
PC-3 = test: Cytotoxicity in human PC3 cells assessed as reduction in cell viability incubated for 24 hrs by CCK8 assay; assay type: functional, cell-based; conditions: PC-3, 24 h
U-87 MG = test: Cytotoxicity in human U87 cells assessed as reduction in cell viability incubated for 24 hrs by CCK8 assay; assay type: functional, cell-based, U-87MG ATCC
A549 [7] = test: Induction of apoptosis in human A549 cells assessed as early apoptotic cells level at 2 uM incubated for 24 hrs by Annexin-V-FITC/PI staining based analysis (reference value: 2.27%); assay type: functional
A549 [8] = test: Induction of apoptosis in human A549 cells assessed as necrotic cells level at 2 uM incubated for 24 hrs by Annexin-V-FITC/PI staining based analysis (reference value: 2.27%); assay type: functional
A549 [9] = test: Inhibition of colony formation n human A549 cells incubated for 15 days by crystal violet staining based assay; assay type: functional, cell-based
SW-620 = test: Cytotoxicity in human SW620 cells assessed as reduction in cell viability incubated for 24 hrs by CCK8 assay; assay type: functional, cell-based; conditions: SW-620, 24 h
A549 [10] = test: Induction of cell membrane disruption in human A549 cells assessed as LDH release at 3.1 uM incubated for 30 mins by fluorescence based assay relative to control
A549 [11] = test: Induction of apoptosis in human A549 cells assessed as induction of caspase-3 activation at 2 uM incubated for 24 hrs using Ac-DEVD-pNA substrate; assay type: functional, cell-based
A549 [12] = test: Cytotoxicity in human A549 cells assessed as reduction in cell viability by trypan blue staining method; assay type: functional, cell-based
HeLa = test: Cytotoxicity in human HeLa cells assessed as reduction in cell viability incubated for 24 hrs by CCK8 assay; assay type: functional, cell-based
L02 = test: Cytotoxicity in human L02 cells assessed as reduction in cell viability incubated for 24 hrs by CCK8 assay; assay type: cell-based; conditions: L02, 24 h
A549 [13] = test: Cytotoxicity in human A549 cells assessed as reduction in cell viability at 0.39 to 25 uM pre-incubated in presence of 10% FBS for 48 hrs and measured after 24 hrs by CCK8 assay; assay type: functional, cell-based
A549 [14] = test: Induction of cell membrane disruption in human A549 cells at 4 uM incubated for 24 hrs by scanning electron microscopy; assay type: cell-based
A549 [15] = test: Inhibition of spheroids growth in human A549 cells 3D tumor spheroids assessed as induction of physical shrinking and peripheral collapse at 10 uM treated on day 0 and measured on day 5; assay type: functional, cell-based
A549 [16] = test: Cytotoxicity in human A549 cells assessed as reduction in cell viability at 1.56 to 12.5 uM at 37 degC incubated for 24 hrs by CCK8 assay; assay type: functional, cell-based
A549 [17] = test: Cytotoxicity in human A549 cells assessed as reduction in cell viability at 1.56 to 12.5 uM at 4 degC incubated for 24 hrs by CCK8 assay; assay type: functional, cell-based
B16-F10 [18] = test: Anti-metastasis activity in mouse B16/F10 cells implanted in BALB/C mouse assessed as inhibition of lung metastatic nodules at 8 mg/kg, ip dosed every other day for 10 days and measured every 2 days by H and E staining based assay; assay type: functional, organism-based
A549 [19] = test: Induction of apoptosis in human A549 cells assessed as late apoptotic cells level at 2 uM incubated for 24 hrs by Annexin-V-FITC/PI staining based analysis (reference value: 2.27%); assay type: functional
B16-F10 [20] = test: Anti-metastasis activity in mouse B16/F10 cells implanted in BALB/C mouse assessed as reduction in lung metastatic nodules at 8 mg/kg, ip dosed every other day for 10 days and measured every 2 days by H and E staining based assay; assay type: functional, organism-based
[21] = Toxicity in mouse B16/F10 cells implanted BALB/C mouse assessed as effect on body weight at 10 mg/kg, ip dosed every other day for 10 days and measured every 5 days; assay type: organism-based; conditions: in vivo
A549 [22] = test: Potency index, ratio of IC50 for lycosin-I to IC50 for test compound for cytotoxicity in human A549 cells assessed as reduction in cell viability at 0.78 to 50 uM incubated for 24 hrs by CCK8 assay; assay type: functional
A549 [23] = test: Inhibition of spheroids growth in human A549 cells 3D tumor spheroids at 5 uM treated on day 0 and measured on day 5 by CCK8 assay; assay type: functional, cell-based
[24] = Stability in mouse serum at 100 uM incubated for 24 hrs at 37 degC by MALDI-TOF MS analysis; assay type: ADME, cell-free
MCF7 = test: Cytotoxicity in human MCF7 cells assessed as reduction in cell viability incubated for 24 hrs by CCK8 assay; assay type: functional, cell-based; conditions: MCF7, 24 h
A549 [25] = test: Cytotoxicity in human A549 cells assessed as reduction in cell viability incubated for 24 hrs by CCK8 assay; assay type: functional, cell-based; conditions: A549, 24 h
A549 [26] = test: Cytotoxicity in human A549 cells 3D tumor spheroids assessed as reduction in cell viability at 5 to 10 uM treated on day 0 and measured on day 5 by CCK8 assay; assay type: functional, cell-based
A549 [27] = test: Cytotoxicity in human A549 cells assessed as reduction in cell viability at 1 uM incubated for 24 hrs by CCK8 assay; assay type: functional, cell-based
A549 [28] = test: Anti-migration activity in human A549 cells 3D tumor spheroids assessed as reduction in cell migration at 2.5 to 10 uM incubated for 48 hrs by gelatin based 3D spheroid based metastasis assay; assay type: functional
B16-F10 [29] = test: Antitumor activity in mouse B16/F10 cells implanted in BALB/C mouse assessed as inhibition of tumor growth at 10 mg/kg, ip dosed every other day for 10 days and measured every 2 days; assay type: functional, organism-based
HEK-293T = test: Cytotoxicity in human HEK293T cells assessed as reduction in cell viability incubated for 24 hrs by CCK8 assay; assay type: cell-based; conditions: Homo sapiens, HEK-293T
[30] = Toxicity in mouse B16/F10 cells implanted BALB/C mouse assessed as effect on body weight at 8 mg/kg, ip dosed every other day for 10 days and measured every 5 days; assay type: organism-based; conditions: in vivo
A549 [31] = test: Inhibition of spheroids growth in human A549 cells 3D tumor spheroids at 10 to 20 uM treated on day 0 and measured on day 5 by CCK8 assay; assay type: functional, cell-based
A549 [32] = test: Induction of cell membrane disruption in human A549 cells assessed as LDH release at 25 uM incubated for 30 mins by fluorescence based assay relative to control
A549 [33] = test: Anti-migration activity in human A549 cells 3D tumor spheroids assessed as reduction in cell migration at 20 uM incubated for 48 hrs by gelatin based 3D spheroid based metastasis assay; assay type: functional
A549 [34] = test: Inhibition of colony formation n human A549 cells up to 10 uM incubated for 15 days by crystal violet staining based assay; assay type: functional, cell-based
A549 [35] = test: Anti-migration activity in human A549 cells at 0.5 to 1 uM incubated for 12 hrs by crystal violet staining based transwell migration assay; assay type: functional, cell-based

| Compound | Activity (A549 [1]) [%] | Activity (A549 [2]) | Activity (A549 [4]) | IC50 (PC-3) [µM] | IC50 (U-87 MG) [µM] | Activity (A549 [7]) [%] | Activity (A549 [8]) [%] | IC50 (SW-620) [µM] | IC50 (HeLa) [µM] | IC50 (L02) [µM] | Activity (A549 [13]) | Activity (A549 [14]) | inhibition (B16-F10 [18]) | Activity (A549 [19]) [%] | Activity [21] | Stability [24] | IC50 (MCF7) [µM] | IC50 (A549 [25]) [µM] | TGI (B16-F10 [29]) | IC50 (HEK-293T) [µM] | other results |
| --- | --- | --- | --- | --- | --- | --- | --- | --- | --- | --- | --- | --- | --- | --- | --- | --- | --- | --- | --- | --- | --- |
| CCCCCCCCCCCC(=O)N[C@@H](CCCCN)C(=O)NCC(=O)N[C@@H](Cc1c[nH]c2ccccc12)C(=O)N[C@@H](Cc1ccccc1)C(=O)N[C@@H](CCCCN)C(=O)N[C@@H](C)C(=O)N[C@@H](CCSC)C(=O)N[C@@H](CCCCN)C(=O)N[C@@H](CO)C(=O)N[C@H](C(=O)N[C@@H](C)C(=O)N[C@@H](CCCCN)C(=O)N[C@@H](Cc1ccccc1)C(=O)N[C@H](C(=O)N[C@@H](C)C(=O)N[C@@H](CCCCN)C(=O)N[C@@H](CCC(=O)O)C(=O)N[C@@H](CCCCN)C(=O)N[C@@H](CC(C)C)C(=O)N[C@@H](CCCCN)C(=O)N[C@@H](CCC(=O)O)C(=O)N[C@@H](Cc1cnc[nH]1)C(=O)N[C@@H](CC(C)C)C(=O)O)[C@@H](C)CC)[C@@H](C)CC (Lauroyl-KGWFKAMKSIAKFIAKEKLKEHL-OH) | 59.4 | Dose-dependent effect | Active | 2.2 | 1.9 | 0.91 | 31.84 | 2 | 2.8 | 3.9 | Active | Active | Active | 10.88 | Non-Toxic | Stable | 1.7 | 2.2 to 2.6 | Active | 2.2 | Activity (A549 [3]): Active; Activity (Homo sapiens): Active; IC50 (B16-F10 [5]): 2 µM; Activity (A549 [6]): Dose-dependent effect; inhibition (A549 [9]): Dose-dependent effect; Activity (A549 [10]): 55%; Activity (A549 [11]): Active; Activity (A549 [12]): Active; growth inhibition (GI) (A549 [15]): Active; Activity (A549 [16]): Active; Activity (A549 [17]): inactive; inhibition (B16-F10 [20]): Active; Ratio IC50 (A549 [22]): 4 - 15; growth inhibition (GI) (A549 [23]): Active; growth inhibition (GI) (A549 [26]): Active; Activity (A549 [27]): inactive; Activity (A549 [28]): Active; Activity [30]: Non-Toxic |
| H-KGWFKAMKSIAKFIAKEKLKEHL-OH | 5.1 | inactive | inactive | 11 | 19.9 | 0.48 | 1.97 | 13.7 | 26.3 | 42.1 | inactive | inactive | inactive | 3.37 | Non-Toxic | Unstable | 20.1 | 22.9 | inactive | 27.9 | growth inhibition (GI) (A549 [31]): inactive; Activity (A549 [32]): 37%; Activity (A549 [33]): Active; inhibition (A549 [34]): inactive; Activity (A549 [35]): inactive |
